From ChEMBL document CHEMBL1201862, “PubChem BioAssay data set” (2004)
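Assay format: 96-well plates, 48-hour exposure. GI50 marks 50% less growth.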 Active and inactive are the calls of the source. Cut-off read from the data, not from the text of the source: active = GI50 up to about 1.1 µM and inactive = higher.

Legend:
Assay in all cases: inhibition of tumour cell growth, NCI panel, 48 h
786-0 = test system: 786-0
A498 = test system: A498
A549 = test system: A549
ACHN = test system: ACHN
CAKI-1 = test system: CAKI-1
CCRF-CEM = test system: CCRF-CEM
COLO 205 = test system: COLO 205
DLD-1 = test system: DLD-1
DMS-114 = test system: DMS-114
DMS-273 = test system: DMS-273
EKVX = test system: EKVX
HCC 2998 = test system: HCC 2998
HCT-116 = test system: HCT-116
HCT-15 = test system: HCT-15
HL-60 = test system: HL-60
HOP-18 = test system: HOP-18
HOP-62 = test system: HOP-62
HOP-92 = test system: HOP-92
HT-29 = test system: HT-29
IGROV-1 = test system: IGROV-1
K562 = test system: K562
KM-20L2 = test system: KM-20L2
KM12 = test system: KM12
LOX IMVI = test system: LOX IMVI
LXFL 529 = test system: LXFL 529
M14 = test system: M14
M19-MEL = test system: M19-MEL
MOLT-4 = test system: MOLT-4
Malme-3M = test system: Malme-3M
NCI-H226 = test system: NCI-H226
NCI-H23 = test system: NCI-H23
NCI-H460 = test system: NCI-H460
NCI-H522 = test system: NCI-H522
OVCAR-3 = test system: OVCAR-3
OVCAR-4 = test system: OVCAR-4
OVCAR-5 = test system: OVCAR-5
OVCAR-8 = test system: OVCAR-8
RXF 393 = test system: RXF 393
SF-268 = test system: SF-268
SF-295 = test system: SF-295
SF-539 = test system: SF-539
SK-MEL-28 = test system: SK-MEL-28
SK-MEL-2 = test system: SK-MEL-2
SK-MEL-5 = test system: SK-MEL-5
SK-OV-3 = test system: SK-OV-3
SN12C = test system: SN12C
SNB-19 = test system: SNB-19
SNB-75 = test system: SNB-75
SR = test system: SR
SW-620 = test system: SW-620
TK-10 = test system: TK-10
U-251 = test system: U-251
UACC-257 = test system: UACC-257
UACC-62 = test system: UACC-62
UO-31 = test system: UO-31
XF498 = test system: XF498
RPMI-8226 = test system: RPMI-8226
SNB-78 = test system: SNB-78

SMILES: CC(C)(C)c1ccc(C(O)c2ccc(C(C)(C)C)cc2)cc1
- GI50 (786-0): 15.5 µM (inactive)
- GI50 (A498): 18.7 µM (inactive)
- GI50 (A549): 14.2 µM (inactive)
- GI50 (ACHN): 16.6 µM (inactive)
- GI50 (CAKI-1): 15.1 µM (inactive)
- GI50 (CCRF-CEM): 16.9 µM (inactive)
- GI50 (COLO 205): 13.6 µM (inactive)
- GI50 (DLD-1): 14.6 µM (inactive)
- GI50 (DMS-114): 12.7 µM (inactive)
- GI50 (DMS-273): 12.6 µM (inactive)
- GI50 (EKVX): 17.7 µM (inactive)
- GI50 (HCC 2998): 21 µM (inactive)
- GI50 (HCT-116): 12.1 µM (inactive)
- GI50 (HCT-15): 12.1 µM
- GI50 (HL-60): 17.1 µM (inactive)
- GI50 (HOP-18): 17.5 µM (inactive)
- GI50 (HOP-62): 16.3 µM (inactive)
- GI50 (HOP-92): 12.6 µM (inactive)
- GI50 (HT-29): 10.4 µM (inactive)
- GI50 (IGROV-1): 16.1 µM (inactive)
- GI50 (K562): 14.7 µM (inactive)
- GI50 (KM-20L2): 17.7 µM (inactive)
- GI50 (KM12): 15.6 µM (inactive)
- GI50 (LOX IMVI): 14.7 µM (inactive)
- GI50 (LXFL 529): 15.5 µM (inactive)
- GI50 (M14): 15 µM (inactive)
- GI50 (M19-MEL): 13.7 µM (inactive)
- GI50 (MOLT-4): 17.6 µM (inactive)
- GI50 (Malme-3M): 15.8 µM (inactive)
- GI50 (NCI-H226): 4.72 µM (inactive)
- GI50 (NCI-H23): 12.1 µM (inactive)
- GI50 (NCI-H460): 12.8 µM (inactive)
- GI50 (NCI-H522): 10.2 µM (inactive)
- GI50 (OVCAR-3): 14.5 µM (inactive)
- GI50 (OVCAR-4): 15.2 µM (inactive)
- GI50 (OVCAR-5): 16.6 µM (inactive)
- GI50 (OVCAR-8): 14.8 µM (inactive)
- GI50 (RXF 393): 17.1 µM (inactive)
- GI50 (SF-268): 20 µM (inactive)
- GI50 (SF-295): 14 µM (inactive)
- GI50 (SF-539): 17.3 µM (inactive)
- GI50 (SK-MEL-28): 16.8 µM (inactive)
- GI50 (SK-MEL-2): 15.2 µM (inactive)
- GI50 (SK-MEL-5): 16.6 µM (inactive)
- GI50 (SK-OV-3): 14.7 µM (inactive)
- GI50 (SN12C): 13.1 µM (inactive)
- GI50 (SNB-19): 17.9 µM (inactive)
- GI50 (SNB-75): 19.2 µM (inactive)
- GI50 (SR): 23.9 µM (inactive)
- GI50 (SW-620): 14.6 µM (inactive)
- GI50 (TK-10): 21.1 µM (inactive)
- GI50 (U-251): 13.1 µM (inactive)
- GI50 (UACC-257): 18.8 µM (inactive)
- GI50 (UACC-62): 15.8 µM (inactive)
- GI50 (UO-31): 16 µM (inactive)
- GI50 (XF498): 15.1 µM (inactive)

SMILES: CC(C)C(=O)/C=C/c1ccc(Br)cc1
- GI50 (786-0): 11.2 µM (inactive)
- GI50 (A498): 14.5 µM (inactive)
- GI50 (A549): 23.8 µM (inactive)
- GI50 (ACHN): 12.7 µM (inactive)
- GI50 (CCRF-CEM): 3.15 µM (inactive)
- GI50 (COLO 205): 23.4 µM (inactive)
- GI50 (DLD-1): 7.31 µM (inactive)
- GI50 (DMS-114): 15.2 µM (inactive)
- GI50 (DMS-273): 12.9 µM (inactive)
- GI50 (EKVX): 24 µM (inactive)
- GI50 (HCC 2998): 17.1 µM (inactive)
- GI50 (HCT-116): 6.14 µM (inactive)
- GI50 (HL-60): 10.8 µM (inactive)
- GI50 (HOP-92): 16.4 µM (inactive)
- GI50 (HT-29): 14.7 µM (inactive)
- GI50 (IGROV-1): 19.2 µM (inactive)
- GI50 (K562): 3.94 µM (inactive)
- GI50 (KM-20L2): 9.86 µM (inactive)
- GI50 (KM12): 13.8 µM (inactive)
- GI50 (LOX IMVI): 17.3 µM (inactive)
- GI50 (LXFL 529): 16.1 µM (inactive)
- GI50 (M14): 17.9 µM (inactive)
- GI50 (M19-MEL): 15.4 µM (inactive)
- GI50 (MOLT-4): 19.2 µM (inactive)
- GI50 (NCI-H23): 17.7 µM (inactive)
- GI50 (NCI-H460): 14.9 µM (inactive)
- GI50 (NCI-H522): 12.2 µM (inactive)
- GI50 (OVCAR-3): 14.2 µM (inactive)
- GI50 (OVCAR-4): 25.4 µM (inactive)
- GI50 (OVCAR-5): 14.4 µM (inactive)
- GI50 (OVCAR-8): 23.2 µM (inactive)
- GI50 (RPMI-8226): 5.38 µM (inactive)
- GI50 (RXF 393): 18.3 µM (inactive)
- GI50 (SF-268): 23 µM (inactive)
- GI50 (SF-295): 15.5 µM (inactive)
- GI50 (SF-539): 21.1 µM (inactive)
- GI50 (SK-MEL-28): 20.1 µM (inactive)
- GI50 (SK-MEL-2): 16.1 µM (inactive)
- GI50 (SK-MEL-5): 12.7 µM (inactive)
- GI50 (SK-OV-3): 22.3 µM (inactive)
- GI50 (SN12C): 14.1 µM (inactive)
- GI50 (SNB-19): 16 µM (inactive)
- GI50 (SNB-75): 18.1 µM (inactive)
- GI50 (SNB-78): 27 µM (inactive)
- GI50 (SR): 7.28 µM (inactive)
- GI50 (SW-620): 5.51 µM (inactive)
- GI50 (TK-10): 16.9 µM (inactive)
- GI50 (U-251): 10.9 µM (inactive)
- GI50 (UACC-257): 16.5 µM (inactive)
- GI50 (UACC-62): 14.5 µM (inactive)
- GI50 (UO-31): 16.4 µM (inactive)
- GI50 (XF498): 16.8 µM (inactive)
